In US5489675A, “Disaccharide sialidase substrates and inhibitors” (priority 1993, dated 1996):
Where a name gives a salt, the structure may show the parent alone.

Key:
[1] = target: T1, Arthrobacter ureafaciens neuraminidase (Paenarthrobacter ureafaciens, UniProt Q5W7Q2); assay: colorimetric neuraminidase assay (sialoside hydrolysis), A. ureafaciens; format: biochemical; settings: 37° C.; for rate of hydrolysis (time course): A. U. neuraminidase, 0.75 mM sialoside, 0-120 min, FIGS. 1 and 3 panel A; for Vmax: A. ureafaciens neuraminidase, sialoside as substrate, 20 min, Lineweaver-Burk
T1 sequence (Q5W7Q2 39-990): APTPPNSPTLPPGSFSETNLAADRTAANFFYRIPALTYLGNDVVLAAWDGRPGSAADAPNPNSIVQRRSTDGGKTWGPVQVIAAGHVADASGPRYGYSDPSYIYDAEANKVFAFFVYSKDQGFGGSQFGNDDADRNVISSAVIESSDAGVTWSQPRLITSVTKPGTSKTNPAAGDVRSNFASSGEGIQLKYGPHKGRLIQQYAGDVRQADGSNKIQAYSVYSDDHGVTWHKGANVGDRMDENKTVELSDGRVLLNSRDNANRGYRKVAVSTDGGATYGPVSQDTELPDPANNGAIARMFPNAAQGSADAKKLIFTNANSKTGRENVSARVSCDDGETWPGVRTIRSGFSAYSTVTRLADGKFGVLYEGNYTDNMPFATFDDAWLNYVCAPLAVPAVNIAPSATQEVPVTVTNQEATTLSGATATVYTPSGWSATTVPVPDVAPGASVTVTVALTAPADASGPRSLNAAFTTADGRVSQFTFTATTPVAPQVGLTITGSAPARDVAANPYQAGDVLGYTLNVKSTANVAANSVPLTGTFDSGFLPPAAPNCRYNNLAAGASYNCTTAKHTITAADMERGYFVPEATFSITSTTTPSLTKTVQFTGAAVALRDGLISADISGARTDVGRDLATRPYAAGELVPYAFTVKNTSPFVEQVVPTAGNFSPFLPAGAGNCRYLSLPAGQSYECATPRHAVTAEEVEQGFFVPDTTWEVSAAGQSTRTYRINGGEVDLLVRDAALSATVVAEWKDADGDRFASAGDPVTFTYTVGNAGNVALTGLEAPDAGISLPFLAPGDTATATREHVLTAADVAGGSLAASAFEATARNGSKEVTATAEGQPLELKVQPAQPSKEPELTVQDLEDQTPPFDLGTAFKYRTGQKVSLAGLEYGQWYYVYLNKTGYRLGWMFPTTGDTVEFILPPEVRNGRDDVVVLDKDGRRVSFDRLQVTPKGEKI

[2] = tested on: Clostridium perfringens neuraminidase; format: biochemical; settings: for rate of hydrolysis (time course): C. P. neuraminidase, 0.75 mM sialoside, 0-120 min, FIGS. 1 and 3 panel B; for rate of hydrolysis (time course) / Vmax: 37° C.; for Vmax: C. perfringens neuraminidase, sialoside as substrate, 20 min, Lineweaver-Burk; for Km: read-out: Michaelis Constant Km
[3] = target: Vibrio cholerae neuraminidase (Vibrio cholerae serotype O1, UniProt P0C6E9); format: biochemical; settings: for rate of hydrolysis (time course): 0.75 mM sialoside, 37° C., 0-120 min, FIGS. 1 and 3 panel C
Chain of Vibrio cholerae neuraminidase (P0C6E9 25-781): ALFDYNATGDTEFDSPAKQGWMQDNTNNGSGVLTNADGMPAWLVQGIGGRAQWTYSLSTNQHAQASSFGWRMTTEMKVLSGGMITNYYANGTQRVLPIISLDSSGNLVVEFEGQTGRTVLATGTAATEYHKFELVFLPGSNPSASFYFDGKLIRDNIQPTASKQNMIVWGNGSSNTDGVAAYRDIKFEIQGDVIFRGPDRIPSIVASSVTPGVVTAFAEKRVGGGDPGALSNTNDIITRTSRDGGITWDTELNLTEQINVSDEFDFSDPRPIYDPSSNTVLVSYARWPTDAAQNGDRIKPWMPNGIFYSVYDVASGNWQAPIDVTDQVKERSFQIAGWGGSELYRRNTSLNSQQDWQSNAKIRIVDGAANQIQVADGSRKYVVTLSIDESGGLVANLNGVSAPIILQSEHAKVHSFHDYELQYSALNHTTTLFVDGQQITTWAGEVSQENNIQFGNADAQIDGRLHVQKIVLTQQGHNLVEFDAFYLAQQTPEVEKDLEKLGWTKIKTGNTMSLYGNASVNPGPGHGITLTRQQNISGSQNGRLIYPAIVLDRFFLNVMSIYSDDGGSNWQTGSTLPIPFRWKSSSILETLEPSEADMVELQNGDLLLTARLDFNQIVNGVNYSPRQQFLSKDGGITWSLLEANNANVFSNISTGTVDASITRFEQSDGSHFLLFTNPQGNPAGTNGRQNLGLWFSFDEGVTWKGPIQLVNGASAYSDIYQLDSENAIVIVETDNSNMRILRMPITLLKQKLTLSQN

[4] = target: C. P. neuraminidase; format: biochemical, Clostridium perfringens; settings: substrate 25, Dixon plots, 37° C.

In the case of CC(=O)NC1C(O)CC(OCC2OC(OCC[Si](C)(C)C)C(O)C(O)C2O)(C(=O)O)OC1C(O)C(O)CO (centres unmarked) [Compound 23a, αDNeuAc (2-6) βDGal-OCH2 CH2 Si (CH3)3, reference compound], the “rate of hydrolysis (time course)” value [1] is reported as “efficiently hydrolyzed”, the Vmax [1] is reported as 0.7 O.D./mU and the “rate of hydrolysis (time course)” value [2] is reported as “faster than the tg sialoside 16a”. The Vmax [2] was 0.88 O.D./mU, the Km [2] was 0.65 mM and the Vmax [3] was 2.2 O.D./mU. The “rate of hydrolysis (time course)” value [3] was “most preferred substrate”.
In the case of CC(=O)N[C@H]1[C@H]([C@H](O)[C@H](O)CO)O[C@@](OC[C@H]2O[C@@H]3OC(C)(C)O[C@@H]3[C@H]3OC(C)(C)O[C@H]32)(C(=O)O)C[C@@H]1O [Compound 23b, reference compound], the “rate of hydrolysis (time course)” value [1] is reported as “more efficiently hydrolyzed”, the Vmax [1] is reported as 0.73 O.D./mU and the “rate of hydrolysis (time course)” value [2] is reported as “more efficiently hydrolyzed”. For the same molecule, the Vmax [2] was 1.70 O.D./mU, the Km [2] was 1.44 mM and the Vmax [3] was 4.5 O.D./mU. For the same molecule, the “rate of hydrolysis (time course)” value [3] was “more efficiently hydrolyzed”.
In the case of CC(=O)N[C@H]1[C@H]([C@H](O)[C@H](O)CO)O[C@@](O[C@H](C)[C@H]2O[C@@H]3OC(C)(C)O[C@@H]3[C@H]3OC(C)(C)O[C@H]32)(C(=O)O)C[C@@H]1O [Compound 19a, Sodium salt of 5-acetamido-3,5-dideoxy-D-glycero-D-galacto-nonulopyranosylonic acid (2-6)-1,2;3,4-di-O-isopropylidene-7-deoxy-α-D-glycero-D-galactoheptopyranose], the “rate of hydrolysis (time course)” value [1] is reported as “no effect on the hydrolysis”, the “rate of hydrolysis (time course)” value [2] is reported as “detrimental effect” and the “rate of hydrolysis (time course)” value [3] is reported as “no effect on the hydrolysis”.
Work on CC(=O)NC1C(O)CC(SC(C)C2OC(O)C(O)C(O)C2O)(C(=O)O)OC1C(O)C(O)CO [Compound 22a, Sodium salt of 5-acetamido-3,5-dideoxy-D-glycero-D-galacto-nonulopyranosylonic acid (2-S-6) -7-deoxy-D-glycero-D-galactoheptopyranose] yielded a Ki [4] of 1 mM.
In the case of CC(=O)N[C@H]1[C@H]([C@H](O)[C@H](O)CO)O[C@@](O[C@@H](C)[C@H]2O[C@@H](OCC[Si](C)(C)C)[C@H](O)[C@@H](O)[C@H]2O)(C(=O)O)C[C@@H]1O [Compound 16b, Sodium salt of 5-acetamido-3,5-dideoxy-D-glycero-D-galacto-nonulopyranosylonate(2-6)-7-deoxy-α-L-glycero-D-galactoheptopyranosyl-OCH2 CH2 Si (CH3)3], the “rate of hydrolysis (time course)” value [1] is reported as “little hydrolysis”, the Vmax [1] is reported as 0.05 O.D./mU and the “rate of hydrolysis (time course)” value [2] is reported as “hydrolyzed very slowly”. The Vmax [2] was 0.22 O.D./mU, the Km [2] was 3.2 mM and the Vmax [3] was 0.37 O.D./mU.
CC(=O)N[C@H]1[C@H]([C@H](O)[C@H](O)CO)O[C@@](O[C@@H](C)[C@H]2O[C@@H]3OC(C)(C)O[C@@H]3[C@H]3OC(C)(C)O[C@H]32)(C(=O)O)C[C@@H]1O [Compound 19b, Sodium salt of 5-acetamido-3,5-dideoxy-D-glycero-D-galacto-nonulopyranosylonic acid (2-6)-1,2;3,4-di-O-isopropylidene-7-deoxy-α-D-glycero-D-galactoheptopyranose] was tested, and the “rate of hydrolysis (time course)” value [2] was “inactive” and the “rate of hydrolysis (time course)” value [3] was “inactive”.
With CC(=O)N[C@H]1[C@H]([C@H](O)[C@H](O)CO)O[C@@](O[C@H](C)[C@H]2O[C@@H](OCC[Si](C)(C)C)[C@H](O)[C@@H](O)[C@H]2O)(C(=O)O)C[C@@H]1O [Compound 16a, Sodium salt of 5-acetamido-3,5-dideoxy-D-glycero-D-galacto-nonulopyranosylonate(2-6)-7-deoxy-β-D-glycero-D-galactoheptopyranosyl-OCH2 CH2 Si (CH3)3] the “rate of hydrolysis (time course)” value [1] was “efficiently hydrolyzed”, the Vmax [1] was 0.91 O.D./mU and the Vmax [2] was 0.90 O.D./mU. The Km [2] was 2.15 mM, the Vmax [3] was 1.42 O.D./mU and the “rate of hydrolysis (time course)” value [3] was “preferentially hydrolyzed”.
